# Numbered stars: 1 amine (or outer) side, 2 acyl side, 3 side chain; on linkers, the order of the positions; unused ones are H or OH. Bridge positions count the residues as written; N and C are the ends. Square brackets hold non-standard residues; d marks the D form. Peptide text beside a SMILES is read from it. * marks the point of attachment. Bip(4'-COOH) = N[C@@H](Cc1ccc(-c2ccc(C(=O)O)cc2)cc1)C(=O)O; Bip(4'-NHAc) = CC(=O)Nc1ccc(-c2ccc(C[C@H](N)C(=O)O)cc2)cc1; Phe(3-CF3) = N[C@@H](Cc1cccc(C(F)(F)F)c1)C(=O)O; Ala(morpholin-4-yl) = N[C@@H](CN1CCOCC1)C(=O)O; Phe(4-CONH2) = NC(=O)c1ccc(C[C@H](N)C(=O)O)cc1; Phe(4-COOH) = N[C@@H](Cc1ccc(C(=O)O)cc1)C(=O)O; X5 = CS(=O)(=O)NC(=O)C[C@H](N[*:1])C(=O)[*:2]; Bip = N[C@@H](Cc1ccc(-c2ccccc2)cc1)C(=O)O; Phe(3-Me) = Cc1cccc(C[C@H](N)C(=O)O)c1; Abu(3S-NH2) = C[C@H](N)[C@H](N)C(=O)O; Val(3-OH) = CC(C)(O)[C@H](N)C(=O)O; Cha = N[C@@H](CC1CCCCC1)C(=O)O; aThr = C[C@H](O)[C@H](N)C(=O)O; Carboxymethyl = O=C(O)C*; NMeA = CN[C@@H](C)C(=O)O; Orn = NCCC[C@H](N)C(=O)O; Dab = NCC[C@H](N)C(=O)O; X48 = CN(C)S(=O)(=O)O*; X42 = CS(=O)(=O)O*; X43 = c1coc(N*)n1
# Target: T1, Alexa fluor-647 labeled human PD-L1-Ig binding to Jurkat cell line over-expressing human PD-1 (Homo sapiens, UniProt Q15116)
# T1 construct: expressed in transfected cells; host or cells: Jurkat
# T1 sequence (Q15116 25-288): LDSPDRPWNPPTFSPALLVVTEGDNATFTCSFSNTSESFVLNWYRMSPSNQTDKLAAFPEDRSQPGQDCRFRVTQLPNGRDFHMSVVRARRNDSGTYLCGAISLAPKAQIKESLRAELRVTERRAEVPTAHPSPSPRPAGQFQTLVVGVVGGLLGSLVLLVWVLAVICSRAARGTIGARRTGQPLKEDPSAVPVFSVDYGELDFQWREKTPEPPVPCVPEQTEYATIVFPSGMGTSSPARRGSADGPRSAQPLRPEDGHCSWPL
# Assay: Jurkat-PD-1 Cell Binding High-Content Screening Assay (CBA): Method 3 (Alexa fluor-647 labeled PD-L1-Ig)
# Settings: Jurkat-PD-1 cells, Alexa fluor-647 labeled PD-L1-Ig 177 nM; head μM; read-out: CBA Method 3 μM
# Outline: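 Readout by high-content imaging of PFA-fixed, Hoechst-stained cells after 1 h with 177 nM (final) Alexa fluor-647 PD-L1-Ig. Compound was added first to hPD-1 Jurkat cells in RPMI plus 10% FCS for 2 h at 37 °C.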
row,SMILES,IC50 [µM]
1,CC(=O)Nc1ccc(-c2ccc(C[C@@H]3NC(=O)[C@H](Cc4cccc(C(F)(F)F)c4)NC(=O)[C@H](CC(=O)OS(C)(=O)=O)NC(=O)[C@H](Cc4ccc(C(=O)O)cc4)NC(=O)[C@H]([C@H](C)N)NC(=O)CSC[C@@H](C(=O)N[C@@H](CCN)C(N)=O)NC(=O)[C@H](CC(N)=O)NC(=O)[C@H](C(C)C)NC(=O)[C@H](CC4CCCCC4)NC(=O)[C@H](CCN)NC(=O)[C@@H](CC(C)C)NC(=O)[C@H](C)N(C)C(=O)[C@H](Cc4ccc(C(N)=O)cc4)NC(=O)[C@H](Cc4ccc(-c5ccccc5)cc4)NC3=O)cc2)cc1 [Example 5112] ({CH2CO}-[Abu(3S-NH2)][Phe(4-COOH)]D(X42)[Phe(3-CF3)][Bip(4'-NHAc)][Bip][Phe(4-CONH2)][NMeA][dL][Dab][Cha]VNC[Dab]-NH2; thioether N-14),0.1
2,CC(C)C[C@H]1NC(=O)[C@H](C)N(C)C(=O)[C@H](Cc2ccc(C(N)=O)cc2)NC(=O)[C@H](Cc2ccc(-c3ccccc3)cc2)NC(=O)[C@H](Cc2ccc(C(=O)O)cc2)NC(=O)[C@H](Cc2cccc(C(F)(F)F)c2)NC(=O)[C@H](CC(=O)OS(=O)(=O)N(C)C)NC(=O)[C@H](Cc2ccc(C(=O)O)cc2)NC(=O)[C@H]([C@H](C)N)NC(=O)CSC[C@@H](C(=O)N[C@@H](CCN)C(N)=O)NC(=O)[C@H](CC(N)=O)NC(=O)[C@H](C(C)C)NC(=O)[C@H](CC2CCCCC2)NC(=O)[C@H](CCN)NC1=O [Example 5113] ({CH2CO}-[Abu(3S-NH2)][Phe(4-COOH)]D(X48)[Phe(3-CF3)][Phe(4-COOH)][Bip][Phe(4-CONH2)][NMeA][dL][Dab][Cha]VNC[Dab]-NH2; thioether N-14),0.15
3,CC(=O)Nc1ccc(-c2ccc(C[C@@H]3NC(=O)[C@H](Cc4cccc(C(F)(F)F)c4)NC(=O)[C@H](CC(=O)NS(C)(=O)=O)NC(=O)[C@H](Cc4ccc(C(N)=O)cc4)NC(=O)[C@H](CC(C)C)NC(=O)CSC[C@@H](C(=O)N[C@@H](CCN)C(N)=O)NC(=O)[C@H](CC(N)=O)NC(=O)[C@H](C(C)C)NC(=O)[C@H](CC4CCCCC4)NC(=O)[C@H](CCN)NC(=O)[C@@H](CC(C)C)NC(=O)[C@H](C)N(C)C(=O)[C@H](Cc4ccc(C(N)=O)cc4)NC(=O)[C@H](Cc4ccc(-c5ccccc5)cc4)NC3=O)cc2)cc1 [Example 5114] ({CH2CO}-L[Phe(4-CONH2)][X5][Phe(3-CF3)][Bip(4'-NHAc)][Bip][Phe(4-CONH2)][NMeA][dL][Dab][Cha]VNC[Dab]-NH2; thioether N-14),0.11
4,CC(=O)Nc1ccc(-c2ccc(C[C@@H]3NC(=O)[C@H](Cc4cccc(C(F)(F)F)c4)NC(=O)[C@H](CC(=O)NS(C)(=O)=O)NC(=O)[C@H](Cc4ccc(C(N)=O)cc4)NC(=O)[C@H]([C@H](C)O)NC(=O)CSC[C@@H](C(=O)N[C@@H](CCN)C(N)=O)NC(=O)[C@H](CC(N)=O)NC(=O)[C@H](C(C)C)NC(=O)[C@H](CC4CCCCC4)NC(=O)[C@H](CCN)NC(=O)[C@@H](CC(C)C)NC(=O)[C@H](C)N(C)C(=O)[C@H](Cc4ccc(C(N)=O)cc4)NC(=O)[C@H](Cc4ccc(-c5ccccc5)cc4)NC3=O)cc2)cc1 [Example 5115] ({CH2CO}-[aThr][Phe(4-CONH2)][X5][Phe(3-CF3)][Bip(4'-NHAc)][Bip][Phe(4-CONH2)][NMeA][dL][Dab][Cha]VNC[Dab]-NH2; thioether N-14),0.28
5,Cc1cccc(C[C@@H]2NC(=O)[C@H](CC(=O)O)NC(=O)[C@H](Cc3ccc(C(=O)O)cc3)NC(=O)[C@H]([C@H](C)N)NC(=O)CSC[C@@H](C(=O)N[C@@H](CCN)C(N)=O)NC(=O)[C@H](CCC(N)=O)NC(=O)[C@H](C(C)C)NC(=O)[C@H](CC3CCCCC3)NC(=O)[C@H](CCN)NC(=O)[C@@H](CC(C)C)NC(=O)[C@H](C)N(C)C(=O)[C@H](Cc3ccc(C(N)=O)cc3)NC(=O)[C@H](Cc3ccc(-c4ccccc4)cc3)NC(=O)[C@H](Cc3ccc(OCC(=O)O)cc3)NC2=O)c1 [Example 5119] ({CH2CO}-[Abu(3S-NH2)][Phe(4-COOH)]D[Phe(3-Me)]Y(Carboxymethyl)[Bip][Phe(4-CONH2)][NMeA][dL][Dab][Cha]VQC[Dab]-NH2; thioether N-14),0.02

# The remaining lines, values ahead:
row,IC50 [µM],SMILES
1,0.33,CC(C)C[C@H]1NC(=O)[C@H](C)N(C)C(=O)[C@H](CCCN)NC(=O)[C@H](Cc2ccc(-c3ccccc3)cc2)NC(=O)[C@H](Cc2ccc(-c3ccc(C(=O)O)cc3)cc2)NC(=O)[C@H](Cc2cccc(C(F)(F)F)c2)NC(=O)[C@H](CC(=O)Nc2ncco2)NC(=O)[C@H](Cc2ccc(-c3ccc(C(=O)O)cc3)cc2)NC(=O)[C@H](Cc2ccc(OCC(=O)O)cc2)NC(=O)CSC[C@@H](C(=O)N[C@@H](CCN)C(N)=O)NC(=O)[C@H](CC(N)=O)NC(=O)[C@H](C(C)C)NC(=O)[C@H](CC2CCCCC2)NC(=O)[C@H](CCN)NC1=O [Example 5116] ({CH2CO}-Y(Carboxymethyl)[Bip(4'-COOH)]D(X43)[Phe(3-CF3)][Bip(4'-COOH)][Bip][Orn][NMeA][dL][Dab][Cha]VNC[Dab]-NH2; thioether N-14)
2,0.07,Cc1cccc(C[C@@H]2NC(=O)[C@H](CC(=O)O)NC(=O)[C@H](Cc3ccc(-c4ccc(C(=O)O)cc4)cc3)NC(=O)[C@H](C)NC(=O)CSC[C@@H](C(=O)N[C@@H](CCN)C(N)=O)NC(=O)[C@H](CO)NC(=O)[C@H](C(C)(C)O)NC(=O)[C@H](CC3CCCCC3)NC(=O)[C@H](Cc3cnc[nH]3)NC(=O)[C@@H](CC(C)C)NC(=O)[C@H](C)N(C)C(=O)[C@H](Cc3ccc(C(=O)O)cc3)NC(=O)[C@H](Cc3ccc(-c4ccccc4)cc3)NC(=O)[C@H](Cc3ccc(-c4ccc(C(=O)O)cc4)cc3)NC2=O)c1 [Example 5121] ({CH2CO}-A[Bip(4'-COOH)]D[Phe(3-Me)][Bip(4'-COOH)][Bip][Phe(4-COOH)][NMeA][dL]H[Cha][Val(3-OH)]SC[Dab]-NH2; thioether N-14)
3,0.11,Cc1cccc(C[C@@H]2NC(=O)[C@H](CC(=O)O)NC(=O)[C@H](Cc3ccc(-c4ccc(C(=O)O)cc4)cc3)NC(=O)[C@H](CN3CCOCC3)NC(=O)CSC[C@@H](C(=O)N[C@@H](CCN)C(N)=O)NC(=O)[C@H](CO)NC(=O)[C@H](C(C)(C)O)NC(=O)[C@H](CC3CCCCC3)NC(=O)[C@H](Cc3cnc[nH]3)NC(=O)[C@@H](CC(C)C)NC(=O)[C@H](C)N(C)C(=O)[C@H](Cc3ccc(C(=O)O)cc3)NC(=O)[C@H](Cc3ccc(-c4ccccc4)cc3)NC(=O)[C@H](Cc3ccc(-c4ccc(C(=O)O)cc4)cc3)NC2=O)c1 [Example 5122] ({CH2CO}-[Ala(morpholin-4-yl)][Bip(4'-COOH)]D[Phe(3-Me)][Bip(4'-COOH)][Bip][Phe(4-COOH)][NMeA][dL]H[Cha][Val(3-OH)]SC[Dab]-NH2; thioether N-14)

# Same assay, conditions: Jurkat-PD-1 cells, Alexa fluor-647 labeled PD-L1-Ig 177 nM; nM; read-out: CBA Method 3
row,SMILES,IC50 [µM]
1,CC(C)C[C@H]1NC(=O)[C@H](C)N(C)C(=O)[C@H](Cc2ccc(OCC(=O)O)cc2)NC(=O)[C@H](Cc2ccc(-c3ccccc3)cc2)NC(=O)[C@H](Cc2ccc(OCC(=O)O)cc2)NC(=O)[C@H](Cc2c[nH]c3ccccc23)NC(=O)[C@H](CC(=O)O)NC(=O)[C@H](Cc2ccc(-c3ccc(C(=O)O)cc3)cc2)NC(=O)[C@H](CN2CCOCC2)NC(=O)CSC[C@@H](C(=O)N[C@@H](CCN)C(N)=O)NC(=O)[C@H](CCC(=O)O)NC(=O)[C@H](C(C)C)NC(=O)[C@H](CC2CCCCC2)NC(=O)[C@H](CCN)NC1=O [Example 5117] ({CH2CO}-[Ala(morpholin-4-yl)][Bip(4'-COOH)]DWY(Carboxymethyl)[Bip]Y(Carboxymethyl)[NMeA][dL][Dab][Cha]VEC[Dab]-NH2; thioether N-14),0.0097
2,CC(=O)Nc1ccc(-c2ccc(C[C@@H]3NC(=O)[C@H](Cc4cccc(C(F)(F)F)c4)NC(=O)[C@H](CC(=O)O)NC(=O)[C@H](Cc4ccc(C(=O)O)cc4)NC(=O)[C@H]([C@H](C)N)NC(=O)CSC[C@@H](C(=O)N[C@@H](CCN)C(N)=O)NC(=O)[C@H](CCC(=O)O)NC(=O)[C@H](C(C)C)NC(=O)[C@H](CC4CCCCC4)NC(=O)[C@H](CCN)NC(=O)[C@@H](CC(C)C)NC(=O)[C@H](C)N(C)C(=O)[C@H](Cc4ccc(C(N)=O)cc4)NC(=O)[C@H](Cc4ccc(-c5ccccc5)cc4)NC3=O)cc2)cc1 [Example 5118] ({CH2CO}-[Abu(3S-NH2)][Phe(4-COOH)]D[Phe(3-CF3)][Bip(4'-NHAc)][Bip][Phe(4-CONH2)][NMeA][dL][Dab][Cha]VEC[Dab]-NH2; thioether N-14),0.0017

# Second part, the compound after the results:
row,IC50 [µM],SMILES
1,0.0056,CC(C)C[C@H]1NC(=O)[C@H](C)N(C)C(=O)[C@H](CCCN)NC(=O)[C@H](Cc2ccc(-c3ccccc3)cc2)NC(=O)[C@H](Cc2ccc(-c3ccc(C(=O)O)cc3)cc2)NC(=O)[C@H](Cc2cccc(C(F)(F)F)c2)NC(=O)[C@H](CC(=O)O)NC(=O)[C@H](Cc2ccc(-c3ccc(C(=O)O)cc3)cc2)NC(=O)[C@H](Cc2ccc(OCC(=O)O)cc2)NC(=O)CSC[C@@H](C(=O)N[C@@H](CCN)C(N)=O)NC(=O)[C@H](CCC(N)=O)NC(=O)[C@H](C(C)C)NC(=O)[C@H](CC2CCCCC2)NC(=O)[C@H](CCN)NC1=O [Example 5120] ({CH2CO}-Y(Carboxymethyl)[Bip(4'-COOH)]D[Phe(3-CF3)][Bip(4'-COOH)][Bip][Orn][NMeA][dL][Dab][Cha]VQC[Dab]-NH2; thioether N-14)
2,0.0094,CC(=O)Nc1ccc(-c2ccc(C[C@@H]3NC(=O)[C@H](Cc4cccc(C)c4)NC(=O)[C@H](CC(=O)O)NC(=O)[C@H](Cc4ccc(-c5ccc(C(=O)O)cc5)cc4)NC(=O)[C@H](CN4CCOCC4)NC(=O)CSC[C@@H](C(=O)N[C@@H](CCN)C(N)=O)NC(=O)[C@H](CO)NC(=O)[C@H](C(C)(C)O)NC(=O)[C@H](CC4CCCCC4)NC(=O)[C@H](Cc4cnc[nH]4)NC(=O)[C@@H](CC(C)C)NC(=O)[C@H](C)N(C)C(=O)[C@H](Cc4ccc(C(=O)O)cc4)NC(=O)[C@H](Cc4ccc(-c5ccccc5)cc4)NC3=O)cc2)cc1 [Example 5123] ({CH2CO}-[Ala(morpholin-4-yl)][Bip(4'-COOH)]D[Phe(3-Me)][Bip(4'-NHAc)][Bip][Phe(4-COOH)][NMeA][dL]H[Cha][Val(3-OH)]SC[Dab]-NH2; thioether N-14)

# — US20240409585A1, “MACROCYCLIC IMMUNOMODULATORS” (priority 2021, published 2024)
